Read-outs that look alike come from different tables or passages of the source. Values belong to the compound of their own block, whether it stands above or below them.
Key:
adenylate cyclase (AC) = experiment: Activation of adenylate cyclase (AC) in rat cerebral cortex synaptolemma, cAMP produced; type: biochemical; conditions: for Amount of cAMP produced: X ± SD; for Activation of AC (in words): rat cerebral cortex synaptolemma
Description: 3.1 Effect on Activities of Adenylate Cyclase (AC) in Rat Cerebral Cortex:
Male Wistar rats weighed 200±20 g are sacrificed by decollation, and cerebral cortex is separated. Synaptolemma is extracted at 4° C. according to the method as described in literature (Rasenick M M et al, Pro. Natl. Acad. Sci. USA, 1980; 77:4628) and suspended in buffer solution, so that a protein concentration of 3˜5 mg/ml is reached. The synaptolemma has to be incubated in advance with the test medicine, as adenylate cyclase (AC) is located on it. The experiment is carried out as follows: portions of 100 μl reaction solution containing certain concentration of test medicine and 15 mmol/L HEPES, pH=7.5, 5 mmol/L MgCl2, 1 mmol/L EGTA, […], 60 mmol/L NaCl, 1 mmol/L aminophylline, 0.5 mg/ml phosphocreatine and 0.14 mg/ml phosphocreatine kinase are respectively dispensed into reaction tubes, followed by addition of 20 μg synaptolemma to each tube. Then, the tubes are immediately put into a water-bath at 30° C. to react for 10 minutes, which reaction is linear during the first 20 minutes. After that, all the reaction tubes are immediately transferred into boiling water and deposited for 3 minutes to terminate the reaction. The amount of cAMP thus produced is measured in an ice-bath environment with cAMP kit, the total reaction volume is 130 μL. The measure is carried out according to the instruction of the kit: various reagents are added and, after the reaction finishes, the tubes are centrifugated at 4000 rpm for 7 minutes. 120 μl supernatant is then pipetted into the measure cup, added afterwards with 1.5 ml anhydrous alcohol, after shaken up, 3.5 ml of scintillation solution is added. Then, the cups are sealed and shaken up, and are left overnight. The values of […] of all samples are determined then by Wallac 1409 liquid scintillation counter. The amount of cAMP produced can be calculated according to the standard curve and CPM. The results are statistically analyzed by ANOVA, and Dunnett's T test is made for inter-group comparison.

[1] = tested on: PC-12 cells damaged by corticosterone; experiment: Protection of PC-12 cells damaged by corticosterone (MTT); type: cell-based, rat; conditions: for Absorbance (A): 10^−4 mol/L corticosterone, 48 h, MTT, 570 nm; for Increase of A (%): vs damaged control
Description: 3.2. Protection Effect of Compound of Formula I on PC-12 Cells Damaged by Corticosterone.
PC-12 cells are diluted into a suspension (2×10^5 cells/ml) with DMEM culture solution containing 5% calf serum and 5% horse serum, and then are transplanted into 96-well plates pretreated with polylysine, and cultivated under conditions of 37° C. and 5% CO2 for 2˜3 days. Cells are to grow all over the wells bottom before test. The culture solution is then pipetted away and serum-free DMEM is added containing certain concentration of test medicine and 10^−4 mol/L corticosterone, 10 μl of 5 mg/ml MTT is added 48 hours later to each well, shaking up slightly and, 4 hours later, 100 μl of 10% SDS is added to each well, again shaking up slightly. The plates are then left in the incubator overnight at 37° C.(about 8˜12 hours). After all the dark-blue crystals are dissolved, shaking up slightly and absorbance (A) of each sample at 570 nm is read using microplate reader.

mice = experiment: Forced swimming test; type: in vivo; conditions: for Duration of immobility: abdominal administration, last 4 of 6 minutes; for immobility time: oral
Description: (1) The test is carried out according to literature (Arch Int. Pharmacodn. Ther, 1977, 229(2): 327). 30 minutes after abdominal injection or 60 minutes after oral administration, the mice are put into an open glass box (19 cm high and 12 cm of diameter). Water inside the glass box is 8 cm in depth and 22˜23° C. in temperature. The mice are put into the water for 6 minutes and observed by Vidio movement analyzer, the accumulated immobility time of the mice during the last 4 minutes and their activity are analyzed identically as above.

5HT1A receptor = biological target: T1, 5HT1A receptor (Rattus norvegicus, UniProt P19327); experiment: 5HT1A receptor test, competition with 3H-8-OH-DPAT on rat hippocampal membrane receptor; type: binding
T1 construct: 50 μl of 1:5 suspension of rat hippocampal membrane receptor; from tissue; host or cells: rat hippocampal membranes
T1 sequence (P19327 1-422): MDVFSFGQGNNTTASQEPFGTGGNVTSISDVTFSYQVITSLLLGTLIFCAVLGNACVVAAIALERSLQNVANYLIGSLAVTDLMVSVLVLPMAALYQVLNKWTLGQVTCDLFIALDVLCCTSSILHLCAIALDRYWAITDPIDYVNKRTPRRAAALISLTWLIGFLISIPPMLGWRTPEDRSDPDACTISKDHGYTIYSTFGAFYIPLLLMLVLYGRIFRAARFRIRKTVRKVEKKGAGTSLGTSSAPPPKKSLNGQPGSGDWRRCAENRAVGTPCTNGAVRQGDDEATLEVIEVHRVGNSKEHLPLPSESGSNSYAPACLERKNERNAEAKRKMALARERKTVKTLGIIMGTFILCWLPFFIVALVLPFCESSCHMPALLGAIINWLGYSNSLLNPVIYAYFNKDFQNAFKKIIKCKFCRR
Description: 20 μl of ^3H-8-OH-DPAT ([…]) and 20 μl of sample solutions of different concentrations are added into 50 μl of 1:5 suspension of rat hippocampal membrane receptor, followed by addition of buffer solution to make up to final volume of 200 μL. Then the above-mentioned suspension is shaken up and incubated in a water-bath at 25° C. for 30 minutes. After quick filtration by suction and washing the membrane receptors, radioactivity value is read by liquid scintillation counter. 20 μl of 5HT […] sulfate (1 mmol) solution is used instead to determine the non-specific conjugation. Buspirone, a partially activating agent of 5HT1A receptor, is used as the positive control. The competitive inhibition rate of the sample to ^3H-8-OH-DPAT is calculated according to the radioactivity value.

Structure (SMILES): CC1OC(OC[C@H]2O[C@@H](Oc3c(-c4ccc(O)c(O)c4)oc4cc(O)cc(O)c4c3=O)[C@H](O[C@@H]3OC[C@](O)(CO)[C@H]3O)[C@@H](O)[C@@H]2O)C(O)C(O)C1O (stereo in doubt) [Compound of formula I, quercetin-3-O-β-D-apiofuranosyl-(1→2)-[α-D-rhamnopyranosyl-(1→6)]-β-D-glucopyranoside]
Amount of cAMP produced (adenylate cyclase (AC); 13.5 μM (0.01 mg/ml)): 23.27 ± 4.95 pmol/mg protein/minute | Amount of cAMP produced (adenylate cyclase (AC); 13.5 μM (0.01 mg/ml), listed as compound of formula I): 23.27±4.95 pmol/mg protein/minute | Amount of cAMP produced (adenylate cyclase (AC); 40.5 μM): 4.75 ± 6.33 pmol/mg protein/minute | Amount of cAMP produced (adenylate cyclase (AC); 135 μM): 43.42 pmol/mg protein/minute | AC activation relative to same doses of imipramine and buspirone (adenylate cyclase (AC); 404 μM (0.3 mg/ml)): 2˜3 times | Activation effect on AC (cAMP produced) (adenylate cyclase (AC); 404 μM (0.3 mg/ml)): 68.34±10.45 pmol/mg protein/minute | Amount of cAMP produced (adenylate cyclase (AC); 405 μM): 68.34 pmol/mg protein/minute | Protection effect on PC-12 cells damaged by corticosterone (in words) [1]: strong protection effect | Absorbance (A) ([1]; 4.04 μmol·L^−1): 0.74 ± 0.14 | Increase of A (%) ([1]; 4.04 μmol·L^−1): 208.3% | Absorbance (A) ([1]; 14.38 μmol·L^−1): 0.84 ± 0.08 | Increase of A (%) ([1]; 14.38 μmol·L^−1): 250.0% | Absorbance (A) ([1]; 40.43 μmol·L^−1): 0.86 ± 0.10 | Increase of A (%) ([1]; 40.43 μmol·L^−1): 258.3% | Absorbance (A) ([1]; 134.77 μmol·L^−1): 0.77 ± 0.11 | Increase of A (%) ([1]; 134.77 μmol·L^−1): 220.8% | Absorbance (A) ([1]; 404.31 μmol·L^−1): 0.61 ± 0.16 | Increase of A (%) ([1]; 404.31 μmol·L^−1): 154.2% | Duration of immobility (mice; 0.31 mg/kg): 148.69 ± 30.81 s | Duration of immobility (mice; 0.31 mg/kg, listed as compound of formula I): shorten the immobility time | Duration of immobility (mice; 1.25 mg/kg): 149.94 ± 34.87 s | Duration of immobility (mice; 5.00 mg/kg): 134.38 ± 40.99 s | immobility time (mice; 3.75 mg/kg): 95.2 ± 47.4 s | immobility time (mice; 7.5 mg/kg): 62.2 ± 45.9 s | immobility time (mice; 7.5 mg/kg, listed as compound of formula I): shorten the immobility time | immobility time (mice; 15 mg/kg): 53.6 ± 50.8 s | immobility time (mice; 30 mg/kg): 111.5 ± 52.9 s | IC50 (5HT1A receptor): ~0.05 nM

Amount of cAMP produced (adenylate cyclase (AC); 25 μM): 19.52 ± 5.46 pmol/mg protein/minute | Amount of cAMP produced (adenylate cyclase (AC); 100 μM): 19.71 ± 5.57 pmol/mg protein/minute | Amount of cAMP produced (adenylate cyclase (AC); 400 μM): 24.63 pmol/mg protein/minute | Amount of cAMP produced (adenylate cyclase (AC); 1 mM): 33.00 pmol/mg protein/minute | Activation of AC (in words) (adenylate cyclase (AC)): dose-dependently activate AC
Structure (SMILES): O=C1CC2(CCCC2)CC(=O)N1CCCCN1CCN(c2ncccn2)CC1 [buspirone]

IC50 (5HT1A receptor; competitive inhibition of 3H-8-OH-DPAT, rat hippocampal membrane, 25° C., 30 minutes, read-out: IC50): ~0.2 nM
Structure (SMILES): CCOc1cc(OCC)c2c(=O)c(OC3OC(COC4OC(C)C(O)C(O)C4O)C(O)C(O)C3OC3OCC(O)(CO)C3O)c(-c3ccc(OCC)c(OCC)c3)oc2c1 [5,7,3′,4′,-tetraethoxyl flavonol-3-O-β-D-apiofuranosyl-(1→2)-[α-D-rhamnopyranosyl-(1→6)]-β-D-glucopyranoside]

Amount of cAMP produced (adenylate cyclase (AC); 25 μM): 15.07 ± 4.91 pmol/mg protein/minute | Amount of cAMP produced (adenylate cyclase (AC); 100 μM): 18.53 ± 3.2 pmol/mg protein/minute | Amount of cAMP produced (adenylate cyclase (AC); 400 μM): 30.32 pmol/mg protein/minute | Amount of cAMP produced (adenylate cyclase (AC); 1 mM): 79.79 pmol/mg protein/minute | Activation of AC (in words) (adenylate cyclase (AC)): dose-dependently activate AC
Structure (SMILES): CN(C)CCCN1c2ccccc2CCc2ccccc21 [imipramine]

Reference: US7049301B2, “Quercetin derivatives and their medical usages” (Academy of Military Medical Sciences Institute of …, priority 2001, dated 2006)
